What is called Ki is the equilibrium dissociation constant of an inhibitor or competing ligand from its target. The IC50 is the point on the concentration scale where inhibition reaches its midpoint. Higher therefore signals weaker potency. For orientation: inhibition in vivo means the change of the read-out against control, counted positive when it falls. Usually bioavailability stands for the share of a dose that reaches the circulation, judged against a reference dose that is usually intravenous. Higher therefore signals much systemic uptake.

Data set [1] deals with Gerbillinae. The experiment in a line: Compound was evaluated for the inhibition of GR 73632-induced foot tapping in gerbils after intravenous administration at 24 hr. It counts as functional. Particulars: read-out: ID50 (the source's name).
Data set [2] has as its system Gerbillinae. In words: Compound was evaluated for the inhibition of GR 73632-induced foot tapping in gerbils after intravenous administration at 2 hour. The note with it: read-out: ID50 (the source's name). The format is functional.
Data set [3] deals with Voltage-gated inwardly rectifying potassium channel KCNH2 (Homo sapiens, UniProt Q12809). In words: Compound was evaluated for the displacement of labelled MK-499 from the cloned channel expressed in HEK cells (Ikr channel). The format is cell-based, HEK293.
The test system of data set [4] is Gerbillinae. The experiment in a line: Compound was evaluated for the inhibition of GR 73632-induced foot tapping in gerbils after intravenous administration at 0 (initial) hour. It counts as functional. Particulars: read-out: ID50 (the source's name).
Another data set addresses Substance-P receptor (Homo sapiens, UniProt P25103). In words: Displacement of [125 I] -labelled substance P from the cloned Tachykinin receptor 1 expressed in CHO cells. It counts as cell-based.
The test system of data set [5] is Gerbillinae. The experiment in a line: Compound was evaluated for the inhibition of GR 73632-induced foot tapping in gerbils 2 hour after oral administration. The format is functional. Particulars: read-out: ID50 (the source's name).
Data set [6] relates to Gerbillinae. The experiment in a line: Compound was evaluated for the inhibition of GR 73632-induced foot tapping in gerbils after intravenous administration at 24 hr at a concentration of 3 mg/kg. It counts as functional.
Data set [7] concerns Gerbillinae. In words: Compound was evaluated for the inhibition of GR 73632-induced foot tapping in gerbils after intravenous administration at 2 hour at a dose 3 mg/kg iv. The format is functional.
A short description of data set [8]: Bioavailability in rat. It counts as ADME, organism-based. Particulars: in vivo.
In data set [9] the test system is Gerbillinae. In words: Compound was evaluated for the inhibition of GR 73632-induced foot tapping in gerbils after intravenous administration. The format is functional. Particulars: read-out: ID50 (the source's name).

Substance-P receptor, sequence (P25103 whole entry): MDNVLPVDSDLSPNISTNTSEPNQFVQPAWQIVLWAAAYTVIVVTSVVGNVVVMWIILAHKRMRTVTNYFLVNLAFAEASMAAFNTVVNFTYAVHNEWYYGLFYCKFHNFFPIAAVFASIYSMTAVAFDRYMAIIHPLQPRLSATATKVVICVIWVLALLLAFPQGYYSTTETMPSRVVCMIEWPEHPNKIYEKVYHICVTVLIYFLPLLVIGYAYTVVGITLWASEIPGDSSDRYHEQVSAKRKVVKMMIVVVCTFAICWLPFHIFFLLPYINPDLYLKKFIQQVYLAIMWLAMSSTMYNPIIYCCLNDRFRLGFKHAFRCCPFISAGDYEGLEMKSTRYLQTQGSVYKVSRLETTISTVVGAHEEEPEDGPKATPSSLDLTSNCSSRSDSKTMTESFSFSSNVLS
Voltage-gated inwardly rectifying potassium channel KCNH2, sequence (Q12809 whole entry): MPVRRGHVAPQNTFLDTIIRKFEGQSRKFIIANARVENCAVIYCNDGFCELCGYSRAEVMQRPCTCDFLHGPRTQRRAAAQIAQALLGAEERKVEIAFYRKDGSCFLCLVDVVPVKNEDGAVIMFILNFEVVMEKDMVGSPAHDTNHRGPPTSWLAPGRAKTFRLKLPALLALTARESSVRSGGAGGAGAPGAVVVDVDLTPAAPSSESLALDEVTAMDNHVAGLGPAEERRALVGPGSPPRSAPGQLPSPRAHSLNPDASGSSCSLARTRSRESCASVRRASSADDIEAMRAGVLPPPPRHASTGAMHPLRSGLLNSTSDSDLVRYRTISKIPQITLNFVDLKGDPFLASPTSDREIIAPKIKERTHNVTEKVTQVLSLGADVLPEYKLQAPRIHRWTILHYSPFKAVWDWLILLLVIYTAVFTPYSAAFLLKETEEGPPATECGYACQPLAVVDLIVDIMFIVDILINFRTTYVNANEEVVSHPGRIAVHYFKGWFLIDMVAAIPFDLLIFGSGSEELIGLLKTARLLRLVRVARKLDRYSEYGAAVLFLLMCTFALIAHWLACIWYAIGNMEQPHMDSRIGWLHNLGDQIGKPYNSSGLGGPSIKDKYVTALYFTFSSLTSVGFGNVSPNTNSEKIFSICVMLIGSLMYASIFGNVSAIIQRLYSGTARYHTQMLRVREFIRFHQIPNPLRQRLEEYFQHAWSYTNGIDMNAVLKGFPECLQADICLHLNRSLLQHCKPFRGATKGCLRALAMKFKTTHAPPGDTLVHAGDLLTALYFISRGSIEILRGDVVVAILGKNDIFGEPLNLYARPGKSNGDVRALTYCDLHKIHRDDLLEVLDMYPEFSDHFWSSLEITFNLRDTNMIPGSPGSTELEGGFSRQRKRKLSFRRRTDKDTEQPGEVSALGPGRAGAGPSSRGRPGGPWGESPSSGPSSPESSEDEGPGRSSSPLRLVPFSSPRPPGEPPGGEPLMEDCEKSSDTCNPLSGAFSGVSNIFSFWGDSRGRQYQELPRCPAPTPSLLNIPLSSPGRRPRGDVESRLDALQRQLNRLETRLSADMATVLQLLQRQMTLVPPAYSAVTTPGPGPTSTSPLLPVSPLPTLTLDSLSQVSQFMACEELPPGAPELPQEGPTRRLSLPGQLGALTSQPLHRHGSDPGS

In the case of `CC(C(=O)N[C@]1(c2ccccc2)CC[C@@H](N2CCC(c3ccc(F)cc3)CC2)CC1)c1cc(C(F)(F)F)cc(C(F)(F)F)c1` (some centres not stated), the ED50 was 1.8 mg/kg in the data set on Gerbillinae [1], 0.6 mg/kg in the data set on Gerbillinae [2] and 1.7 mg/kg with Gerbillinae [4]. Further, affinity in data set [3] was put at a Ki of 43 nM.

Turning to `CC(C(=O)N[C@]1(c2ccccc2)CC[C@@H](N2CCN(C(C)C)CC2)CC1)c1cc(C(F)(F)F)cc(C(F)(F)F)c1` (some centres not stated), at Substance-P receptor, the IC50 was 0.39 nM.

On to `CC(C(=O)N[C@]1(c2ccccc2)CC[C@@H](N2CCC3(CC2)OCCO3)CC1)c1cc(C(F)(F)F)cc(C(F)(F)F)c1` (some centres not stated), for which the IC50 at Substance-P receptor is 0.3 nM. For the same molecule, the ED50 with Gerbillinae [1] is 5.4 mg/kg.

Molecule `CC(C(=O)N[C@]1(c2ccccc2)CC[C@@H](N2CCC(O)CC2)CC1)c1cc(C(F)(F)F)cc(C(F)(F)F)c1` (some centres not stated) displayed an IC50 on Substance-P receptor of 0.85 nM. Moreover, in data set [3], the inhibitory constant (Ki) came to 1400 nM.

`CC(C(=O)N[C@]1(c2ccccc2)CC[C@H](N2CCCCC2)CC1)c1cc(C(F)(F)F)cc(C(F)(F)F)c1` (some centres not stated) registered an IC50 on Substance-P receptor of 2.4 nM.

As to `CC(C(=O)N[C@]1(c2ccccc2)CC[C@H](N(C)C)CC1)c1cc(C(F)(F)F)cc(C(F)(F)F)c1` (some centres not stated), the concentration for half-maximal inhibition (IC50) at Substance-P receptor is 22 nM.

Molecule `CC(C(=O)NC1(c2ccccc2)CCC(N2CCC3(CCC(=O)O3)CC2)CC1)c1cc(C(F)(F)F)cc(C(F)(F)F)c1` (configuration not stated) came in with a 50% inhibitory concentration (IC50) at Substance-P receptor of 2.1 nM. The same molecule displayed a Ki in [3] of 400 nM.

For `CC(C(=O)NC1(c2ccccc2)CCC(N2CCC3(CCOC3)CC2)CC1)c1cc(C(F)(F)F)cc(C(F)(F)F)c1` (configuration not stated), the half-maximal inhibitory concentration (IC50) on Substance-P receptor was 0.34 nM. The ED50 is 1.6 mg/kg in the data set on Gerbillinae [1], 1.1 mg/kg with Gerbillinae [2], 2.2 mg/kg in the data set on Gerbillinae [5] and 1.4 mg/kg in the data set on Gerbillinae [4].

`CC1CCN([C@H]2CC[C@](NC(=O)C(C)c3cc(C(F)(F)F)cc(C(F)(F)F)c3)(c3ccccc3)CC2)CC1` (some centres not stated) yielded an IC50 at Substance-P receptor of 1.2 nM. The molecule further came in with a Ki in data set [3] of 460 nM.

Molecule `CC(C(=O)NC1(c2ccccc2)CCC(N2CCC3(CCCO3)CC2)CC1)c1cc(C(F)(F)F)cc(C(F)(F)F)c1` (configuration not stated) gave an IC50 at Substance-P receptor of 0.22 nM. In addition, the figures for the ED50 with Gerbillinae [1] and in the data set on Gerbillinae [2] were 3.1 mg/kg and 0.7 mg/kg, respectively. In data set [3], the Ki is 730 nM.

With `CC(C(=O)NC1(c2ccccc2)CCC(N2CCC(O)(Cc3ccccc3)CC2)CC1)c1cc(C(F)(F)F)cc(C(F)(F)F)c1` (configuration not stated), the IC50 on Substance-P receptor turned out to be 0.33 nM. In data set [3], this molecule showed an inhibition constant (Ki) of 260 nM.

`CC(C(=O)NC1(c2ccccc2)CCC(N2CCC3(CC2)CCC(C)(C)O3)CC1)c1cc(C(F)(F)F)cc(C(F)(F)F)c1` (configuration not stated) came in with an IC50 at Substance-P receptor of 0.35 nM. Moreover, the ED50 with Gerbillinae [2] is 1 mg/kg. This molecule had a Ki in data set [3] of 950 nM. The same molecule came in with an inhibition in vivo at 3 mg/kg in the data set on Gerbillinae [6] of 72%.

At Substance-P receptor, `CC(C(=O)NC1(c2ccccc2)CCC(N2CCC3(CCOC3=O)CC2)CC1)c1cc(C(F)(F)F)cc(C(F)(F)F)c1` (configuration not stated) displayed an IC50 of 0.42 nM. For the same molecule, the affinity in [3] corresponds to a Ki of 490 nM.

In the case of `CC(C(=O)N[C@]1(c2ccccc2)CC[C@@H](N2CCC(=O)CC2)CC1)c1cc(C(F)(F)F)cc(C(F)(F)F)c1` (some centres not stated), the IC50 on Substance-P receptor is 1.6 nM.

As to `O=C(NCc1cc(C(F)(F)F)cc(C(F)(F)F)c1)[C@]1(c2ccccc2)CC[C@@H](N2CCC(c3ccc(F)cc3)CC2)CC1`, the IC50 at Substance-P receptor worked out at 0.34 nM. In the data set with Gerbillinae [7], the inhibition in vivo at 3 mg/kg worked out at 15%. Also, the bioavailability in data set [8] turned out to be 70%. Further, the ED50 in the data set on Gerbillinae [9] is 1.9 mg/kg.
